From paper PMC6726392 (ACS chemical neuroscience, 2019)

Key:
[1] = target: T1, kappa opioid receptor (KOR); human KOR (Homo sapiens, UniProt P41145); assay: […]GTPγS binding stimulation, membranes; assay type: biochemical
[2] = target: delta opioid receptor (DOR); rat DOR (Rattus norvegicus, UniProt P33533); assay: [3H]diprenorphine competitive displacement, membranes; assay type: binding
[3] = target: T1, kappa opioid receptor (KOR); human KOR; assay: as above; assay type: binding
[4] = target: mu opioid receptor (MOR); rat MOR (Rattus norvegicus, UniProt P33535); assay: as above; assay type: binding

SMILES	EC50 [1]	Ki [2]	Ki [3]	Ki [4]
Cc1cc(O)cc(C)c1C[C@H](N)C(=O)N1CCc2cccc(Cc3ccccc3)c2C1 [4d, 8-Bn Dmt-Tiq analogue 4d]	319 nM	185 nM	26 nM	4.1 nM
Cc1cc(O)cc(C)c1C[C@H](N)C(=O)N1CCc2ccc(Cc3ccccc3)cc2C1 [4c, 7-Bn Dmt-Tiq analogue 4c]	33 nM	6.1 nM	3.9 nM	2.7 nM
Cc1cc(O)cc(C)c1C[C@H](N)C(=O)N1CCc2cc(Cc3ccccc3)ccc2C1 [4b, 6-Bn Dmt-Tiq analogue 4b]	–	4.3 nM	38 nM	9.9 nM
Cc1cc(O)cc(C)c1C[C@H](N)C(=O)N1CCc2c(Cc3ccccc3)cccc2C1 [4a, 5-Bn Dmt-Tiq analogue 4a]	–	3.3 nM	112 nM	17 nM
